Data set [1] has as its system Mycobacterium kansasii DSM 44162. Nature of the data set: In vitro antimycobacterial evaluation (broth dilution micro-method, MIC) against M. kansasii. Format: cell-based. Conditions: DSM44162, 168 h, M. kansasii DSM 44162, MIC = IC90, 7 days incubation, visual. A general note: In broth dilution the organism is exposed to a series of concentrations in liquid medium.
The subject of the next data set is M. smegmatis ATCC 700084. The data set can be described thus: In vitro antimycobacterial evaluation (broth dilution micro-method, MIC) against M. smegmatis. Format: cell-based. Conditions: Mycolicibacterium smegmatis, ATCC700084, 72 h; Mycobacterium smegmatis ATCC 700084; MIC = IC90; 3 days incubation, visual.
Data set [2] relates to human monocytic leukemia THP-1 cells. The data set can be described thus: In vitro antiproliferative assay (WST-1). Conditions: THP-1, 24 h, read-out: IC50 (antiproliferative activity). Background: Tetrazolium assays rely on reduction of a dye to a coloured formazan, in cell work by metabolically active cells.
Procedure: Human monocytic leukemia THP-1 cells were used for in vitro antiproliferative assay. Cells were obtained from the European Collection of Cell Cultures (ECACC, Salisbury, UK) and routinely cultured in RPMI 1640 medium supplemented with 10% fetal bovine serum, 2% L-glutamine, 1% penicillin and streptomycin at 37 °C with 5% CO2. Cells were passaged at approximately one-week intervals. Antiproliferative activity of the compounds was determined using a Water Soluble Tetrazolium Salts-1 (WST-1, 2-(4-iodophenyl)-3-(4-nitrophenyl)-5-(2,4-disulfophenyl)-2H-tetrazolium) assay kit (Roche Diagnostics, Mannheim, Germany) according to the manufacturer’s instructions. The tested compounds were dissolved in DMSO and added in five increasing concentrations (0.37, 1.1, 3.3, 10 and 30 μM) to the cell suspension in the culture RPMI 1640 medium. The maximum concentration of DMSO in the assays never exceeded 0.1%. Subsequently, the cells were incubated for 24 h at 37 °C with 5% CO2. For WST-1 assays, cells were seeded into 96-well plates (5 × 10^4 cells/well in 100 μL culture medium) in triplicate in serum-free RPMI 1640 medium, and measurements were taken 24 h after the treatment with the compounds. The median inhibition concentration values, IC50, were deduced through the production of a dose-response curve. All data were evaluated using GraphPad Prism 5.00 software (GraphPad Software, San Diego, CA, USA).
In data set [3] the test system is Mycobacterium tuberculosis H37Ra ATCC 25177. The data set can be described thus: MTT assay, viability of M. tuberculosis H37Ra. Format: cell-based. To be noted: at the tested concentration equal to MICs; 7 days; positive result when viability less than 70%. The procedure: The MTT assay is a well-characterized method of assessing cell growth through measurement of respiration. For the purpose of this assay, a positive result was recorded when the MTT measured viability of M. tuberculosis H37Ra was less than 70% after exposure to the MIC of each test compound.
For the MTT (3-(4,5-dimethylthiazol-2-yl)-2,5-diphenyltetrazolium bromide) assay, the outer wells of a 96-well plate were filled with 200 µL of sterile water, and the inner wells were filled with 100 µL of the tested compound at the MIC to be examined. Compounds were prepared as previously stated and diluted in Middlebrook media to achieve the desired concentration. Mycobacterium tuberculosis H37Ra ATCC 25177 was suspended in ODAC supplemented Middlebrook broth at a MacFarland standard of 1.0 and then diluted 1:20, using Middlebrook broth as a diluent. The diluted mycobacteria (100 µL) were added to each well containing the compound to be tested. A negative growth control was composed of 100 µL of DMSO and 100 µL of the media, and the diluted mycobacteria in broth absent of inhibiting compounds were used as a positive growth control. All compounds and controls were prepared in triplicate. Plates were incubated at 37 °C for 7 days. After the incubation period, 10% well volume of MTT reagent was mixed into each well and incubated at 37 °C for 24 h. The reagent and media were then aspirated from the wells, to which 50 µL 99% isopropanol was then added, and the plates were read at 570 nm. The absorbance readings from the cells, grown in the presence of the tested compounds, were compared with uninhibited cell growth (using DMSO as the blank) to determine the relative percent viability. The percent viability was determined through the MTT assay. The percent viability is calculated through comparison of a measured value against that of the uninhibited control: %viability = OD570E/OD570P × 100, where OD570E is the reading from the compound-exposed cells, while OD570P is the reading from the uninhibited cells (positive control). Cytotoxic potential is determined by a percent viability of <70%.

Data set [4] shares this test system. Nature of the data set: In vitro antimycobacterial evaluation (alamarBlue, MIC) against M. tuberculosis. Format: cell-based. To be noted: 168 h, M. tuberculosis H37Ra ATCC 25177, MIC = 90% or greater (IC90) reduction of growth, 7 days. How it is done:
The evaluation of the in vitro antimycobacterial activity of the compounds was performed against Mycobacterium tuberculosis H37Ra ATCC 25177 (MT), M. kansasii DSM 44162 (MK) and M. smegmatis ATCC 700084 (MS), see Table 1. To lower risk and make manipulation in the laboratory easier, surrogate model pathogens for M. tuberculosis can be used in laboratory studies. Avirulent M. tuberculosis strain H37Ra is very closely related to and has similar pathology as human-infecting M. tuberculosis strains, making it a good model for study especially because of the lower risk for laboratory workers. M. kansasii, the most virulent of the NTM, causes nontuberculous mycobacterial lung infections, which are now very common, and can be indistinguishable from tuberculosis. M. smegmatis is an ideal representative of a fast-growing nonpathogenic microorganism, particularly useful in studying basic cellular processes of special relevance to pathogenic mycobacteria. Therefore additionally M. kansasii and M. smegmatis were chosen as model species for screening of prospective antimycobacterial drugs to control mycobacterial diseases. The potency of the compounds was expressed as the minimum inhibitory concentration (MIC) that is defined for mycobacteria as 90% or greater (IC90) reduction of growth in comparison with the control.
Mycobacterium tuberculosis H37Ra ATCC 25177 was grown in Middlebrook broth (MB), supplemented with Oleic-Albumin-Dextrose-Catalase (OADC) supplement (Becton, Dickinson & Comp., Franklin Lakes, NJ, USA) and mycobactin J (2 μg/mL). At log phase growth, a culture sample (10 mL) was centrifuged at 15,000 rpm/20 min using a bench top centrifuge (Model CR 4-12, Jouan Inc., Winchester, VA, USA). Following the removal of the supernatant, the pellet was washed in fresh Middlebrook 7H9GC broth and re-suspended in fresh, ODAC-supplemented MB (10 mL). The turbidity was adjusted to match McFarland standard No. 1 (3 × 10^8 cfu) with MB broth. A further 1:20 dilution of the culture was then performed in MB broth. The antimicrobial susceptibility of M. tuberculosis was investigated in a 96-well plate format. In these experiments, sterile deionised water (300 µL) was added to all outer-perimeter wells of the plates to minimize evaporation of the medium in the test wells during incubation. Each evaluated compound (100 µL) was incubated with M. tuberculosis (100 µL). Dilutions of each compound were prepared in duplicate. For all synthesized compounds, final concentrations ranged from 1000 μg/mL to 8 μg/mL. All compounds were dissolved in DMSO, and subsequent dilutions were made in supplemented MB. The plates were sealed with parafilm and incubated at 37 °C for 7 days. Following incubation, a 10% addition of alamarBlue (AbD Serotec, Kidlington, UK) was mixed into each well, and readings at 570 nm and 600 nm were taken, initially for background subtraction and subsequently after 24 h re-incubation. The background subtraction is necessary for strongly coloured compounds, where the colour may interfere with the interpretation of any colour change. For non-interfering compounds, a blue colour in the well was interpreted as the absence of growth, and a pink colour was scored as growth.
The minimum inhibitory concentration (MIC) was defined as the lowest concentration of the compound at which no visible bacterial growth was observed, i.e., the MIC is the lowest concentration that prevented a visual colour change from blue to pink. MIC is defined for mycobacteria as 90% or greater (IC90) reduction of growth in comparison with the control. The MIC/IC90 value is routinely and widely used in bacterial assays and is a standard detection limit according to the Clinical and Laboratory Standards Institute (CLSI, www.clsi.org). Rifampicin and isoniazid (Sigma-Aldrich) were used as the standards as they are clinically used antimycobacterial drugs.
For orientation: Resazurin is reduced to fluorescent resorufin, in cell work by metabolically active cells.

Data set [5] concerns human monocytic leukemia THP-1 cells. To be noted: assessed in this line formerly, read-out: IC50 (antiproliferative activity); cited from earlier work.

In brackets after ≈: the same amount, converted by molar mass. Where two headings read alike, the source gives them in different places.

By MIC is commonly meant the lowest concentration that inhibits growth of the organism. A high value points to a need for much substance. For orientation: IC50 means the concentration at which inhibition is half-maximal.

Turning to `CCCOc1cccc(NC(=O)c2ccc3ccccc3c2O)c1` [Compound 11b, 1-Hydroxy-N-(3-propoxyphenyl)naphthalene-2-carboxamide], the MIC in data set [1] is 49 µM (≈ 15.7 µg/mL); against M. smegmatis ATCC 700084, 199 µM (≈ 64 µg/mL); in data set [4] it was 24 µM (≈ 7.71 µg/mL). The IC50 in data set [2] was 1370 ± 720 nM. Further, the “viability of M. tuberculosis H37Ra (MTT)” value in data set [3] was determined as 15.13%.

For `CCCCOc1cccc(NC(=O)c2ccc3ccccc3c2O)c1` [Compound 12b, N-(3-Butoxyphenyl)-1-hydroxynaphthalene-2-carboxamide], the MIC in data set [1] was determined as 47 µM (≈ 15.8 µg/mL); in the data set with M. smegmatis ATCC 700084 it was 190 µM (≈ 63.7 µg/mL); in data set [4], 23 µM (≈ 7.71 µg/mL). Also, in data set [2], the IC50 amounted to 1800 ± 320 nM. The “viability of M. tuberculosis H37Ra (MTT)” value in data set [3] is 9.96%.

For the compound `CCC(C)Oc1cccc(NC(=O)c2ccc3ccccc3c2O)c1` (stereo not shown) [Compound 14b, N-[3-(But-2-yloxy)phenyl]-1-hydroxynaphthalene-2-carboxamide], the MIC in data set [1] was 47 µM (≈ 15.8 µg/mL); with M. smegmatis ATCC 700084, 12 µM (≈ 4.02 µg/mL); in data set [4], 23 µM (≈ 7.71 µg/mL). In addition, the IC50 in data set [2] came to 1170 ± 380 nM. In data set [3], the “viability of M. tuberculosis H37Ra (MTT)” value is 9.96%.

Regarding `CC[C@@]1(O)C(=O)OCc2c1cc1n(c2=O)Cc2cc3ccccc3nc2-1` [camptothecin], the IC50 in data set [5] was 160 ± 70 nM.

The record behind these values is publication PMC6273036, “N-Alkoxyphenylhydroxynaphthalenecarboxamides and Their Antimycobacterial Activity” (Molecules, 2016).
